# US8221736B2, “Semiochemical” (Rothamsted Research Limited, priority 1999, dated 2012)
# Marks after values point to notes of the source that are not given here.
# Tests used:
# [1] = system: aphid parasitoid Aphidius ervi; test: Wind tunnel single choice test of A. ervi with synthetic compounds on filter paper; format: in vivo; conditions: 10 μg on filter paper, hexane control 26.7
# Text: Since semiochemicals acting as repellents or inhibitors of host attractancy for herbivorous insects are often involved in predation or parasitism, the activity of cis-jasmone was also investigated at higher trophic levels. […] These experiments indicate a behavioural role for cis-jasmone in influencing interactions between plants, herbivorous insects and their predators and parasitoids. Naive female A. ervi were flown in a wind tunnel, as described in J. Chem. Ecol. 16, 381-396 (1996) (Poppy et al.). The parasitoids were released 25 cm downwind (single choice tests) or 40 cm downwind (dual choice test) of the target, which was either a plant or a synthetic compound (10 μg in 10 μl hexane) placed on a 2×1 cm strip of filter paper (Whatman No. 1) surrounded by a ring of green crêpe paper. The proportions of parasitoids responding with an oriented flight to the synthetic chemicals were calculated each day on 3 separate days. These values were then subjected to a logit transformation to normalize the data before being analysed by ANOVA followed by Tukey post-hoc tests. The number of parasitoids orienting upwind to the single plant target were recorded and subjected to a χ^2 contingency test (Pearson method on Genstat—see Genstat 5 Committee. Genstat 5 Reference Manual, Release 3 (Clarendon Press, Oxford, 1993)) to determine whether an orienting response was linked to the type of plant treatment. The numbers orienting to each plant in the dual choice test were analysed by a χ^2 to determine whether one plant was more attractive than the other.
# [2] = system: black bean aphid, Aphis fabae; conditions: J. Chem. Ecol. 20 (1994), Pettersson et al., Hardie et al.; cited from earlier work
# [3] = system: grain aphid, Sitobion avenae; conditions: J. Chem. Ecol. 20 (1994), Pettersson et al., Hardie et al.; cited from earlier work
# [4] = system: broad bean, V. faba (cv The Sutton); test: Induction of volatile release by bean plants (air entrainment, GC/GC-MS); format: in vivo, Vicia faba; conditions: 24 hour exposure at 100 μg/l in air; 48 hour entrainments
# Method: A possible role for the compound as an airborne plant signal was investigated using the broad bean, V. faba (cv The Sutton). Plants were kept for 24 hours in clean air or in air incorporating cis-jasmone at 100 μg/l; subsequently, samples of volatiles released by the plants were obtained by entrainment over 4 periods of 48 hours, i.e. up to 192 hours after the end of the treatment. The cis-jasmone itself was undetectable after 48 hours. […] There was also, from some replicates, enhancement of (E,E)-α-farnesene, (−)-β-caryophyllene and (E)-4,8-dimethyl-1,3,7-nonatriene. These compounds have all been implicated in herbivorous insect-induced production and increased parasitoid foraging. The nonatriene can also be produced innately by plants imitating damage for defence against herbivores and which are thus attractive to parasitoids.
# Bean plants, V. faba (cv The Sutton) were grown under standard glasshouse conditions until the 2-4 leaf stage when they were rinsed free of soil and transplanted into baked glass jars containing washed sand, with 3 plants per jar. These were left for 1-2 days to acclimatize. Plants to be treated (three jars of three plants each) were sealed in a 25 l glass tank for 24 hours with either cis-jasmone or methyl jasmonate (2.5 mg) applied to a piece of filter paper (Whatman No. 1) placed on the floor of the tank. […]
# [5] = system: D251 sequence in Vicia faba plants; test: Differential display and northern blot of gene-specific sequence D251; format: in vivo; conditions: northern blot, versus air
# Method: Total RNA was isolated from stem or leaf tissue of plants exposed to air, methyl jasmonate or cis-jasmone. 10 μg RNA per sample was loaded and separated on a formaldehyde gel (Panel A). The samples were then transferred to a nylon membrane and probed with the D251 sequence (Panel B). Lane 1=air treatment (control); lane 2=cis-jasmone treatment; lane 3=methyl jasmonate treatment. In the case of RNA isolated from leaf tissue, only cis-jasmone treatment results in upregulation. In order to determine if cis-jasmone was capable of inducing alterations in plant gene expression, the sensitive technique of differential display was carried out on RNA extracted from plants which had been exposed to air, methyl jasmonate or cis-jasmone. […] To confirm this observation, bands of interest were recovered by excision from the dried gel and re-amplified with the appropriate pair of oligonucleotide primers. The resulting PCR products were cloned and sequenced to confirm the homogeneous nature of the amplified product. These sequences were then used to probe RNA isolated from control or treated V. faba plants. […] It is important to note that the nature of the differential display technique generates short gene-specific probes, containing mainly 3′ untranslated regions of transcribed sequences, and therefore the functional part of the differentially expressed gene is unknown. Thus, using differential display and confirmatory northern blotting, we have shown that methyl jasmonate and cis-jasmone have apparently distinct effects on plant gene expression. […] Thus, the two compounds have distinct effect on plant gene expression and the response to these signalling compounds may be tissue-specific.
smiles,measurement,setting,value
C=C/C(C)=C/CC=C(C)C [(E)-β-ocimene],% showing oriented flight,[1],48.8^a %
"C=C/C(C)=C/C/C=C(\C)CCC=C(C)C [(E,E)-α-farnesene]",% showing oriented flight,[1],60.9^a %
COC(=O)c1ccccc1O [Methyl salicylate],behavioural effect on black bean aphid,[2],repelling
same,behavioural effect on cereal aphids including the grain aphid,[3],repelling
"CC/C=C\CC1C(=O)CCC1CC(=O)OC (stereo not shown) [methyl jasmonate, reference compound]",effect on levels of (E)-β-ocimene released,[4],did not significantly increase
same,expression of D251 sequence in leaf tissue,[5]; RNA from leaf tissue of plants exposed to vapour,only cis-jasmone brought about an increase
same,expression of D251 sequence in stem tissue,[5]; RNA from stem tissue of plants exposed to vapour,upregulated to a similar level
